Laboratory results: PubChem BioAssay (NCI)
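Cultured in 96-well plates, cells were exposed to test compound for 48 hours across five concentrations. Definition used: TGI = concentration required for complete inhibition of growth.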

Assays:
Experiment in all cases: growth of human tumour cells (NCI), 48 h
A549 NSCLC = tested on: A549 NSCLC
HOP-92 NSCLC = tested on: HOP-92 NSCLC
NCI-H23 lung = tested on: NCI-H23 lung
DU-145 prostate = tested on: DU-145 prostate
SR leukemia = tested on: SR leukemia
SF-539 CNS = tested on: SF-539 CNS

## CCN(CCCl)c1cc(CN(C)C)cc(NC(=O)c2ccc(C(=O)Nc3cccc(N(CCCl)NN)c3)cc2)c1
A549 NSCLC
  TGI: 2520 nM
HOP-92 NSCLC
  TGI: 707 nM
NCI-H23 lung
  TGI: 626 nM
DU-145 prostate
  TGI: 8660 nM
SR leukemia
  TGI: > 100000 nM
SF-539 CNS
  TGI: 560 nM
